Our source for the IFN induction and TNF induction values is patent US7678918B2, “Intermediates for imidazonaphthyridines” (3M Innovative Properties Company, priority 1997, dated 2010).

Assay [1] concerns IFN. Nature of the assay: Cytokine Induction in Human Cells: interferon (IFN) secreted by PBMCs, A549/encephalomyocarditis bioassay. Type of assay: cell-based. The conditions noted are these: 18 to 24 hours. The text has this: (§1) An in vitro human blood cell system was used to assess cytokine induction by compounds of the invention. Activity is based on the measurement of interferon and tumor necrosis factor (ℑ) (IFN and TNF, respectively) secreted into culture media as described by Testerman et. al. In “Cytokine Induction by the Immunomodulators Imiquimod and S-27609”, Journal of Leukocyte Biology, 58, 365-372 (September, 1995). Blood Cell Preparation for Culture
(§2) Whole blood is collected by venipuncture into EDTA vacutainer tubes from healthy human donors. Peripheral blood mononuclear cells (PBMCs) are separated from whole blood by Histopaque®-1077 (Sigma Chemicals, St. Louis, Mo.) density gradient centrifugation. The PBMCs are suspended at 1.5-2×10^6 cells/mL in RPMI 1640 medium containing 10% fetal bovine serum, 2 mM L-glutamine and 1% penicillin/streptomycin solution (RPMI complete). 1 mL portions of PBMC suspension are added to 24 well flat bottom sterile tissue culture plates.
(§3) The compounds are solubilized in dimethyl sulfoxide (DMSO). The DMSO concentration should not exceed a final concentration of 1% for addition to the culture wells. The compounds are generally tested in a concentration range of from 0.1 to 100 μM.
(§4) The solution of test compound is added to the wells containing 1 mL of PBMCs in media. The plates are covered with plastic lids, mixed gently and then incubated for 18 to 24 hours at 37° C. with a 5% carbon dioxide atmosphere.
(§5) Following incubation the plates are centrifuged for 5-10 minutes at 1000 rpm (˜200×g) at 4° C. The cell culture supernatant is removed with a sterile polypropylene pipet and transferred to a 2 mL sterile cryotube. Samples are maintained at −70° C. until analysis.
Interferon is determined by bioassay using A549 human lung carcinoma cells challenged with encephalomyocarditis. The details of the bioassay method have been described by G. L. Brennan and L. H. Kronenberg in “Automated Bioassay of Interferons in Micro-test Plates”, Biotechniques, June/July 78, 1983, incorporated herein by reference. Briefly stated the method is as follows: A549 cells are incubated with samples and standard interferon dilutions at 37° C. for 24 hours. The incubated cells are then infected with an inoculum of encephalomyocarditis virus. The infected cells are incubated for an additional 24 hours at 37° C. before quantifying for viral cytopathic effect. The viral cytopathic effect is quantified by staining followed by visual scoring of the plates. Results are expressed as alpha reference units/mL based on the value obtained for NIH Human Leukocyte IFN standard.

In assay [2] the test system is TNF. Nature of the assay: Cytokine Induction in Human Cells: tumor necrosis factor (TNF) secreted by PBMCs, ELISA. Type of assay: cell-based. Conditions: 18 to 24 hours.
From the text: as §1, §2, §3, §4, §5
Tumor necrosis factor (ℑ) (TNF) concentration is determined using an ELISA kit available from Genzyme, Cambridge, Mass. The results are expressed as pg/mL.

Structures are written as SMILES. Counter-ions that a name gives are not always drawn.
Further: call rule not given here.

With `CCCCc1nc2c(N)nc3cccnc3c2n1CCCCNC(=O)CC1CCCC1` [Example 160], the IFN induction entry is on record as “+” in assay [1] (Dose Concentration 0.1 μM), “+” in assay [1] (Dose Concentration 1.0 μM), “+” in assay [1] (Dose Concentration 10.0 μM) and “−” in assay [1] (Dose Concentration 100.0 μM). The TNF induction result is on record as “−” in assay [2] (Dose Concentration 0.1 μM), “+” in assay [2] (Dose Concentration 1.0 μM), “+” in assay [2] (Dose Concentration 10.0 μM) and “−” in assay [2] (Dose Concentration 100.0 μM).

Turning to `CCCCc1nc2c(N)nc3cccnc3c2n1CCCCNC(=O)CCCCC(=O)OC` [Example 182], the IFN induction entry was “−” in assay [1] (Dose Concentration 0.1 μM), “+” in assay [1] (Dose Concentration 1.0 μM), “+” in assay [1] (Dose Concentration 10.0 μM) and “+” in assay [1] (Dose Concentration 100.0 μM). Besides, the TNF induction entry in assay [2] (Dose Concentration 0.1 μM) was “−”; in assay [2] (Dose Concentration 1.0 μM) it was “+”; in assay [2] (Dose Concentration 10.0 μM), “+”; in assay [2] (Dose Concentration 100.0 μM), “−”.

For the molecule `CCCCc1nc2c(N)nc3cccnc3c2n1CCNC(=O)c1ccc(Br)s1` [Example 204], the IFN induction entry in assay [1] (Dose Concentration 0.1 μM), in assay [1] (Dose Concentration 1.0 μM), in assay [1] (Dose Concentration 10.0 μM) and in assay [1] (Dose Concentration 100.0 μM) was “+” throughout. Further, the TNF induction result in assay [2] (Dose Concentration 0.1 μM) is “−”; in assay [2] (Dose Concentration 1.0 μM), “+”; in assay [2] (Dose Concentration 10.0 μM) it was “+”; in assay [2] (Dose Concentration 100.0 μM), “+”.

As for `CCCCc1nc2c(N)nc3cccnc3c2n1CCNS(=O)(=O)c1ccccc1` [Example 117, N^1-[4-(4-Amino-2-butyl-1H-imidazo[4,5-c][1,5]naphthyridin-1-yl)ethyl]benzenesulfonamide], the IFN induction result is on record as “−” in assay [1] (Dose Concentration 0.1 μM), “−” in assay [1] (Dose Concentration 1.0 μM), “+” in assay [1] (Dose Concentration 10.0 μM) and “+” in assay [1] (Dose Concentration 100.0 μM). In addition, the TNF induction result in assay [2] (Dose Concentration 0.1 μM) is reported as “−”; in assay [2] (Dose Concentration 1.0 μM), “−”; in assay [2] (Dose Concentration 10.0 μM), “+”; in assay [2] (Dose Concentration 100.0 μM), “+”.

As to `CCCCc1nc2c(N)nc3cccnc3c2n1CCNC(=O)C(N)CC(C)C` (stereo not shown) [Example 102, N^1-[2-(4-Amino-2-butyl-1H-imidazo[4,5-c][1,5]naphthyridin-1-yl)ethyl]-2-amino-4-methylpentanamide], the IFN induction entry in assay [1] (Dose Concentration 0.1 μM), in assay [1] (Dose Concentration 1.0 μM), in assay [1] (Dose Concentration 10.0 μM) and in assay [1] (Dose Concentration 100.0 μM) was “+” in each case. Further, the TNF induction entry in assay [2] (Dose Concentration 0.1 μM), in assay [2] (Dose Concentration 1.0 μM), in assay [2] (Dose Concentration 10.0 μM) and in assay [2] (Dose Concentration 100.0 μM) was “+” throughout.

With `CCCCc1nc2c(N)nc3cccnc3c2n1CCCCNC(=O)c1ccc(F)cc1` [Example 166], the IFN induction result is recorded as “−” in assay [1] (Dose Concentration 0.1 μM), “+” in assay [1] (Dose Concentration 1.0 μM), “+” in assay [1] (Dose Concentration 10.0 μM) and “−” in assay [1] (Dose Concentration 100.0 μM). The TNF induction entry in assay [2] (Dose Concentration 0.1 μM) is “−”; in assay [2] (Dose Concentration 1.0 μM) it was “+”; in assay [2] (Dose Concentration 10.0 μM), “+”; in assay [2] (Dose Concentration 100.0 μM), “−”.

On to `CCCCc1nc2c(N)nc3cccnc3c2n1CCNC(=O)c1ccc([N+](=O)[O-])o1` [Example 146], for which the IFN induction entry is “+” in assay [1] (Dose Concentration 0.1 μM), “+” in assay [1] (Dose Concentration 1.0 μM), “+” in assay [1] (Dose Concentration 10.0 μM) and “−” in assay [1] (Dose Concentration 100.0 μM). Besides, the TNF induction result in assay [2] (Dose Concentration 0.1 μM), in assay [2] (Dose Concentration 1.0 μM), in assay [2] (Dose Concentration 10.0 μM) and in assay [2] (Dose Concentration 100.0 μM) was “+” throughout.

With `CCCCc1nc2c(N)nc3cccnc3c2n1CCNC(=O)C1C2CC3C(C2=O)C31` (stereo not shown) [Example 198], the IFN induction result is given as “−” in assay [1] (Dose Concentration 0.1 μM), “−” in assay [1] (Dose Concentration 1.0 μM), “+” in assay [1] (Dose Concentration 10.0 μM) and “+” in assay [1] (Dose Concentration 100.0 μM). The TNF induction result in assay [2] (Dose Concentration 0.1 μM) is listed as “−”; in assay [2] (Dose Concentration 1.0 μM), “+”; in assay [2] (Dose Concentration 10.0 μM), “+”; in assay [2] (Dose Concentration 100.0 μM), “+”.

On to `CCCCc1nc2c(N)nc3cccnc3c2n1CCCCNC(=O)CC(C)(C)C` [Example 172], for which the IFN induction result in assay [1] (Dose Concentration 0.1 μM), in assay [1] (Dose Concentration 1.0 μM), in assay [1] (Dose Concentration 10.0 μM) and in assay [1] (Dose Concentration 100.0 μM) was “+” each time. Besides, the TNF induction result is recorded as “−” in assay [2] (Dose Concentration 0.1 μM), “+” in assay [2] (Dose Concentration 1.0 μM), “+” in assay [2] (Dose Concentration 10.0 μM) and “+” in assay [2] (Dose Concentration 100.0 μM).

As for `CCCCc1nc2c(N)nc3cccnc3c2n1CCCCNC(=O)c1cc(C(F)(F)F)cc(C(F)(F)F)c1` [Example 161], the IFN induction result in assay [1] (Dose Concentration 0.1 μM) is on record as “±”; in assay [1] (Dose Concentration 1.0 μM) it was “+”; in assay [1] (Dose Concentration 10.0 μM), “+”; in assay [1] (Dose Concentration 100.0 μM), “+”. In addition, the TNF induction result in assay [2] (Dose Concentration 0.1 μM) is listed as “−”; in assay [2] (Dose Concentration 1.0 μM), “−”; in assay [2] (Dose Concentration 10.0 μM), “+”; in assay [2] (Dose Concentration 100.0 μM), “+”.

In the case of `CCCCc1nc2c(N)nc3cccnc3c2n1CCCCNC(=O)CCCCn1cnc2c1c(=O)n(C)c(=O)n2C` [Example 105, N^1-[4-(4-Amino-2-butyl-1H-imidazo[4,5-c][1,5]naphthyridin-1-yl)butyl]-5-(1,3-dimethyl-2,6-oxo-2,3,6,7-tetrahydro-1H-purinyl)pentamide], the IFN induction entry in assay [1] (Dose Concentration 0.1 μM), in assay [1] (Dose Concentration 1.0 μM), in assay [1] (Dose Concentration 10.0 μM) and in assay [1] (Dose Concentration 100.0 μM) was “+” in each case. For the same molecule, the TNF induction result in assay [2] (Dose Concentration 0.1 μM) is recorded as “−”; in assay [2] (Dose Concentration 1.0 μM) it was “−”; in assay [2] (Dose Concentration 10.0 μM), “+”; in assay [2] (Dose Concentration 100.0 μM), “+”.

As to `CCCCc1nc2c(N)nc3cccnc3c2n1CCNC(=O)CCn1cc([N+](=O)[O-])nc1C` [Example 209], the IFN induction result was “−” in assay [1] (Dose Concentration 0.1 μM), “−” in assay [1] (Dose Concentration 1.0 μM), “+” in assay [1] (Dose Concentration 10.0 μM) and “+” in assay [1] (Dose Concentration 100.0 μM). Moreover, the TNF induction result in assay [2] (Dose Concentration 0.1 μM) is listed as “−”; in assay [2] (Dose Concentration 1.0 μM) it was “−”; in assay [2] (Dose Concentration 10.0 μM) it was “+”; in assay [2] (Dose Concentration 100.0 μM), “+”.

As for `CCCCc1nc2c(N)nc3cccnc3c2n1CCNC(=O)CCc1ccccc1` [Example 96, N^1-[2-(4-Amino-2-butyl-1H-imidazo[4,5-c][1,5]naphthyridin-1-yl)ethyl]-3-phenylpropanamide Hydrochloride], the IFN induction result is “−” in assay [1] (Dose Concentration 0.1 μM), “±” in assay [1] (Dose Concentration 1.0 μM), “+” in assay [1] (Dose Concentration 10.0 μM) and “+” in assay [1] (Dose Concentration 100.0 μM). In addition, the TNF induction entry is given as “−” in assay [2] (Dose Concentration 0.1 μM), “−” in assay [2] (Dose Concentration 1.0 μM), “+” in assay [2] (Dose Concentration 10.0 μM) and “+” in assay [2] (Dose Concentration 100.0 μM).

As to `CCCCc1nc2c(N)nc3cccnc3c2n1CCNC(=O)CC(C)(C)C` [Example 135], the IFN induction result in assay [1] (Dose Concentration 1.0 μM) is “−”; in assay [1] (Dose Concentration 10.0 μM) it was “+”; in assay [1] (Dose Concentration 100.0 μM) it was “+”. Also, the values for the TNF induction entry in assay [2] (Dose Concentration 1.0 μM), in assay [2] (Dose Concentration 10.0 μM) and in assay [2] (Dose Concentration 100.0 μM) were “−”, “+” and “+”, respectively.

In the case of `CCCCCCCOc1ccc(C(=O)NCCCCn2c(CCCC)nc3c(N)nc4cccnc4c32)cc1` [Example 190], the IFN induction entry in assay [1] (Dose Concentration 0.1 μM) is “+”; in assay [1] (Dose Concentration 1.0 μM) it was “+”; in assay [1] (Dose Concentration 10.0 μM) it was “+”; in assay [1] (Dose Concentration 100.0 μM), “−”. Further, the TNF induction result in assay [2] (Dose Concentration 0.1 μM) is given as “−”; in assay [2] (Dose Concentration 1.0 μM), “+”; in assay [2] (Dose Concentration 10.0 μM), “+”; in assay [2] (Dose Concentration 100.0 μM) it was “−”.
